ChEMBL document CHEMBL3885881, “DrugMatrix”

Species: Rattus norvegicus
Test: DrugMatrix - Regimen: Daily Repeat
Assay type: toxicity, organism-based, Sprague-Dawley
Set-up: regimen Daily Repeat, gender Male, age 6-8 weeks
Settings: in vivo, po, route oral GAVAGE; for TOTAL BILIRUBIN / TOTAL PROTEIN / URIC ACID / ALANINE AMINOTRANSFERASE / ALBUMIN / ALKALINE PHOSPHATASE / ASPARTATE AMINOTRANSFERASE / BLOOD UREA NITROGEN / CARBON DIOXIDE / CHLORIDE / CHOLESTEROL / CREATINE PHOSPHOKINASE / CREATININE / GLUCOSE / LIPASE / PHOSPHORUS / POTASSIUM / SODIUM / LACTATE DEHYDROGENASE: tissue Plasma; for ABSOLUTE BASOPHIL / ABSOLUTE EOSINOPHIL / ABSOLUTE LYMPHOCYTE / ABSOLUTE MONOCYTE / BASOPHIL / EOSINOPHIL / ERYTHROCYTE COUNT / HEMATOCRIT / HEMOGLOBIN / LEUKOCYTE COUNT / LYMPHOCYTE / MEAN CORPUSCULAR HEMOGLOBIN / MEAN CORPUSCULAR HEMOGLOBIN CONCENTRATION / MEAN CORPUSCULAR VOLUME / MONOCYTE / NEUTROPHIL / PLATELET COUNT: tissue Blood
[1] = 40 mg/kg, 72 h, dose level Low, time 3 day, […]
[2] = 40 mg/kg, 120 h, dose level Low, time 5 day, […]
[3] = 40 mg/kg, […], dose level Low, time 14 day
[4] = 75 mg/kg, 72 h, dose level High, time 3 day, vehicle 100 % WATER
[5] = 75 mg/kg, 120 h, dose level High, time 5 day, vehicle 100 % WATER

## C=CCN [ALLYLAMINE]
[1]
  TOTAL BILIRUBIN: 0.37 mg/dL
  TOTAL PROTEIN: 6.2 G/DL
  URIC ACID: 0.87 mg/dL
[2]
  ABSOLUTE BASOPHIL: 43.3 cells/µL
  ABSOLUTE EOSINOPHIL: 90 cells/µL
  ABSOLUTE LYMPHOCYTE: 7670 cells/µL
  ABSOLUTE MONOCYTE: 220 cells/µL
  BASOPHIL: 0.4%
  EOSINOPHIL: 0.87%
  ERYTHROCYTE COUNT: 6.74 x10E6/uL
  HEMATOCRIT: 45.3%
  HEMOGLOBIN: 14.1 G/DL
  LEUKOCYTE COUNT: 9.63 x10E3/uL
  LYMPHOCYTE: 79.33%
  MEAN CORPUSCULAR HEMOGLOBIN: 20.87 pg
  MEAN CORPUSCULAR HEMOGLOBIN CONCENTRATION: 31 G/DL
  MEAN CORPUSCULAR VOLUME: 67.23 fL
  MONOCYTE: 2.27%
  NEUTROPHIL: 16.57%
  PLATELET COUNT: 1351.33 x10E3/uL
  ALANINE AMINOTRANSFERASE: 42.33 u/L
  ALBUMIN: 4.03 G/DL
  ALKALINE PHOSPHATASE: 470.67 u/L
  ASPARTATE AMINOTRANSFERASE: 72.67 u/L
  BLOOD UREA NITROGEN: 16 mg/dL
  CARBON DIOXIDE: 41 mmol/L
  CHLORIDE: 105.33 MEQ/L
  CHOLESTEROL: 72 mg/dL
  CREATINE PHOSPHOKINASE: 350.33 u/L
  CREATININE: 0.53 mg/dL
  GLUCOSE: 155.33 mg/dL
  LIPASE: 249.67 u/L
  PHOSPHORUS: 9.53 mg/dL
  POTASSIUM: 6.27 MEQ/L
  SODIUM: 147.33 MEQ/L
  TOTAL BILIRUBIN: 0.47 mg/dL
  TOTAL PROTEIN: 6.63 G/DL
  URIC ACID: 0.9 mg/dL
[3]
  ABSOLUTE BASOPHIL: 50 cells/µL
  ABSOLUTE EOSINOPHIL: 42 cells/µL
  ABSOLUTE LYMPHOCYTE: 10000 cells/µL
  ABSOLUTE MONOCYTE: 250 cells/µL
  BASOPHIL: 0.38%
  EOSINOPHIL: 0.34%
  ERYTHROCYTE COUNT: 7.47 x10E6/uL
  HEMATOCRIT: 46.98%
  HEMOGLOBIN: 15.52 G/DL
  LEUKOCYTE COUNT: 12.8 x10E3/uL
  LYMPHOCYTE: 78.9%
  MEAN CORPUSCULAR HEMOGLOBIN: 20.78 pg
  MEAN CORPUSCULAR HEMOGLOBIN CONCENTRATION: 33.02 G/DL
  MEAN CORPUSCULAR VOLUME: 62.96 fL
  MONOCYTE: 1.9%
  NEUTROPHIL: 17.96%
  PLATELET COUNT: 1148.8 x10E3/uL
  ALANINE AMINOTRANSFERASE: 29 u/L
  ALBUMIN: 4.18 G/DL
  ALKALINE PHOSPHATASE: 389.8 u/L
  ASPARTATE AMINOTRANSFERASE: 69.2 u/L
  BLOOD UREA NITROGEN: 13.8 mg/dL
  CARBON DIOXIDE: 44.6 mmol/L
  CHLORIDE: 102.4 MEQ/L
  CHOLESTEROL: 74.2 mg/dL
  CREATINE PHOSPHOKINASE: 240 u/L
  CREATININE: 0.76 mg/dL
  GLUCOSE: 131.8 mg/dL
  LACTATE DEHYDROGENASE: 199 u/L
  LIPASE: 11.2 u/L
  PHOSPHORUS: 9.98 mg/dL
  POTASSIUM: 6.2 MEQ/L
  SODIUM: 145.8 MEQ/L
  TOTAL BILIRUBIN: 0.4 mg/dL
  TOTAL PROTEIN: 6.92 G/DL
  URIC ACID: 0.58 mg/dL
[4]
  BASOPHIL: 0.63%
  EOSINOPHIL: 0.23%
  ERYTHROCYTE COUNT: 6.73 x10E6/uL
  HEMATOCRIT: 44.27%
  HEMOGLOBIN: 14.4 G/DL
  LEUKOCYTE COUNT: 16.4 x10E3/uL
  LYMPHOCYTE: 77.37%
  MEAN CORPUSCULAR HEMOGLOBIN: 21.43 pg
  MEAN CORPUSCULAR HEMOGLOBIN CONCENTRATION: 32.6 G/DL
  MEAN CORPUSCULAR VOLUME: 65.77 fL
  MONOCYTE: 2.5%
  NEUTROPHIL: 16.67%
  PLATELET COUNT: 1260.67 x10E3/uL
  ALANINE AMINOTRANSFERASE: 39 u/L
  ALBUMIN: 3.9 G/DL
  ALKALINE PHOSPHATASE: 237 u/L
  ASPARTATE AMINOTRANSFERASE: 74.33 u/L
  BLOOD UREA NITROGEN: 13.67 mg/dL
  CARBON DIOXIDE: 24.67 mmol/L
  CHLORIDE: 108 MEQ/L
  CHOLESTEROL: 104.33 mg/dL
  CREATINE PHOSPHOKINASE: 169 u/L
  CREATININE: 0.4 mg/dL
  GLUCOSE: 146 mg/dL
  LACTATE DEHYDROGENASE: 59 u/L
  LIPASE: 35.33 u/L
  PHOSPHORUS: 11.03 mg/dL
  POTASSIUM: 5.8 MEQ/L
  SODIUM: 151 MEQ/L
  TOTAL BILIRUBIN: 0.23 mg/dL
  TOTAL PROTEIN: 6.07 G/DL
  URIC ACID: 1.93 mg/dL
[5]
  BASOPHIL: 0.35%
  EOSINOPHIL: 0.7%
  ERYTHROCYTE COUNT: 6.38 x10E6/uL
  HEMATOCRIT: 42.1%
  HEMOGLOBIN: 13.35 G/DL
  LEUKOCYTE COUNT: 11.54 x10E3/uL
  LYMPHOCYTE: 82.75%
  MEAN CORPUSCULAR HEMOGLOBIN: 20.9 pg
  MEAN CORPUSCULAR HEMOGLOBIN CONCENTRATION: 31.65 G/DL
  MEAN CORPUSCULAR VOLUME: 66.05 fL
  MONOCYTE: 2%
  NEUTROPHIL: 6.45%
  PLATELET COUNT: 1169 x10E3/uL
  ALANINE AMINOTRANSFERASE: 28.5 u/L
  ALBUMIN: 4 G/DL
  ALKALINE PHOSPHATASE: 238.5 u/L
  ASPARTATE AMINOTRANSFERASE: 69.5 u/L
  BLOOD UREA NITROGEN: 17.5 mg/dL
  CARBON DIOXIDE: 23 mmol/L
  CHLORIDE: 107.5 MEQ/L
  CHOLESTEROL: 62 mg/dL
  CREATINE PHOSPHOKINASE: 269 u/L
  CREATININE: 0.25 mg/dL
  GLUCOSE: 145 mg/dL
  LACTATE DEHYDROGENASE: 62 u/L
  LIPASE: 19 u/L
  PHOSPHORUS: 13.95 mg/dL
  POTASSIUM: 7.05 MEQ/L
  SODIUM: 149.5 MEQ/L
  TOTAL BILIRUBIN: 0.4 mg/dL
  TOTAL PROTEIN: 6.15 G/DL
  URIC ACID: 2.85 mg/dL
